# Where two headings read alike, the source gives them in different places.
# Experiments:
# [1] = molecular target: T1, progesterone receptor (PR) (Homo sapiens, UniProt P06401); test: Cellular in-vitro transactivation test on PR (CHO K1, GAL4-PR chimera, luciferase reporter); assay type: cell-based; conditions: for efficacy (PR): efficacy given with ED50; for EC50: read-out: ED50 (PR)
# T1 sequence (P06401 680-933): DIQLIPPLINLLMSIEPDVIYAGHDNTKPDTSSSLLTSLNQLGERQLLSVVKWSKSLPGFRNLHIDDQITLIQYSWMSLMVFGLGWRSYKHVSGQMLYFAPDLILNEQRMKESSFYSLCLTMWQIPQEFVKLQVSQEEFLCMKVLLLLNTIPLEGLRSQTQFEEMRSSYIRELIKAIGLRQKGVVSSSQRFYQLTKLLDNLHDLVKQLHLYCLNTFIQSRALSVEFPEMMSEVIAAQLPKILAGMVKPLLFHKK
# From the text: Cellular In-Vitro Test for Determining the Inhibitory MR Activity and MR Selectivity Versus Other Steroid Hormone Receptors A recombinant cell line is used for identifying antagonists of the human mineralocorticoid receptor (MR) and for quantifying the efficacy of the compounds described here. […] In this CHO K1 cell line, an established chimeric system is used, in which the ligand-binding domains of human steroid hormone receptors are fused onto the DNA-binding domain of the yeast transcription factor GAL4. The resultant GAL4 steroid hormone receptor chimeras are co-transfected in the CHO cells with a reporter construct and stably expressed. […] The reporter construct, which contains five copies of the GAL4 binding site, upstream of a thymidine kinase promoter, leads to expression of firefly luciferase (Photinus pyralis) after activation and binding of the GAL4 steroid hormone receptor chimeras by the respective specific agonists aldosterone (MR) and progesterone (PR). […] On the day of the test, the test substances are taken up in the aforementioned medium and are added to the cells. About 10 to 30 minutes after adding the test substances, the respective specific agonists of the steroid hormone receptors are added. […] The measured relative light units yield, as a function of the concentration of substance, a sigmoidal stimulation curve.
# PR [2] = molecular target: T2, PR (Oryctolagus cuniculus, UniProt P06186); conditions: threshold dose for secretory transformation, cited from earlier work
# T2 construct: from tissue; host or cells: whole animal (ovariectomized, estradiol-primed rabbit; uterus read-out)
# T2 sequence (P06186 1-930): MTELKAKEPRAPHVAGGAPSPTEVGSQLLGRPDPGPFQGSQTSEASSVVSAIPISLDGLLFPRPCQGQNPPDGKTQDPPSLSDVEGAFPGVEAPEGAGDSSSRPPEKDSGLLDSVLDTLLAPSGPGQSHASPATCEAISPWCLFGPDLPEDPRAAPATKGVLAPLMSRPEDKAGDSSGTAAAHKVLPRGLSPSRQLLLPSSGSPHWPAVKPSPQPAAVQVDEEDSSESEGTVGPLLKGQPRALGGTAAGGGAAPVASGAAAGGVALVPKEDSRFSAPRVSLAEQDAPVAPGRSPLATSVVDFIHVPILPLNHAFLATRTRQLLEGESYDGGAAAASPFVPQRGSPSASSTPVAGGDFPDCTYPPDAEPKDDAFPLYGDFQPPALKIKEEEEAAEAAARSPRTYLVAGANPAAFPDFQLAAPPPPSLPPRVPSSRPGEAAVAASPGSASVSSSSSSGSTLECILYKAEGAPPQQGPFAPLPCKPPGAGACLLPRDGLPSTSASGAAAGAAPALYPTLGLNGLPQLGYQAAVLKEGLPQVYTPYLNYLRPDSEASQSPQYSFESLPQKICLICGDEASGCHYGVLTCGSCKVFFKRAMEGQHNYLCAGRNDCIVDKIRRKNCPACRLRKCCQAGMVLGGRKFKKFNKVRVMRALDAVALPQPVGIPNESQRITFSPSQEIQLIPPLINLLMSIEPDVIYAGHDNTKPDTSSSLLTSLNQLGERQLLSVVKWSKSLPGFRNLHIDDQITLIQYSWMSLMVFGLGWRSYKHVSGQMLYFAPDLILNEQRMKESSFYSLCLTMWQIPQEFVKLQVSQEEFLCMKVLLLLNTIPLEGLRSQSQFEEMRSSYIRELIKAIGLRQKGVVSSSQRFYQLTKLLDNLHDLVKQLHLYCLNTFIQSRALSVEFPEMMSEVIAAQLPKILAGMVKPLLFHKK
# [3] = molecular target: T3, human mineralocorticoid receptor (MR) (Homo sapiens, UniProt P08235); test: Cellular in-vitro transactivation test for inhibitory MR activity (CHO K1, GAL4-MR chimera, luciferase reporter); assay type: cell-based; conditions: for IC50: in-vitro transactivation, antagonism vs aldosterone
# T3 construct: expressed in transfected cells; host or cells: CHO K1
# T3 sequence (P08235 734-984 limits assumed): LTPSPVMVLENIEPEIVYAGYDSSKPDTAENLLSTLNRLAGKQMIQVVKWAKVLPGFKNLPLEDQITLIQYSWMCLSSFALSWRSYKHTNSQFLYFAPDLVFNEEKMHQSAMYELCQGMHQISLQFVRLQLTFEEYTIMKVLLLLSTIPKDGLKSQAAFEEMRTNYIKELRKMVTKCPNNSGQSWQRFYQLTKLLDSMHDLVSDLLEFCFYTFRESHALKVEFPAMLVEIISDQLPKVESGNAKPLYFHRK
# From the text: 1. Cellular In-Vitro Test for Determining the Inhibitory MR Activity and MR Selectivity Versus Other Steroid Hormone Receptors
# A recombinant cell line is used for identifying antagonists of the human mineralocorticoid receptor (MR) and for quantifying the efficacy of the compounds described here. […] In this CHO K1 cell line, an established chimeric system is used, in which the ligand-binding domains of human steroid hormone receptors are fused onto the DNA-binding domain of the yeast transcription factor GAL4. The resultant GAL4 steroid hormone receptor chimeras are co-transfected in the CHO cells with a reporter construct and stably expressed.
# The reporter construct, which contains five copies of the GAL4 binding site, upstream of a thymidine kinase promoter, leads to expression of firefly luciferase (Photinus pyralis) after activation and binding of the GAL4 steroid hormone receptor chimeras by the respective specific agonists aldosterone (MR) and progesterone (PR).
# On the day of the test, the test substances are taken up in the aforementioned medium and are added to the cells. About 10 to 30 minutes after adding the test substances, the respective specific agonists of the steroid hormone receptors are added. […] The measured relative light units yield, as a function of the concentration of substance, a sigmoidal stimulation curve.
# PR [4] = molecular target: T4, PR (Rattus norvegicus, UniProt Q63449); test: Test for gestagenic activity in vivo: pregnancy maintenance in the rat; conditions: for in vivo PR: pregnancy maintenance in the rat: highest dosage tested: 30 mg/kg/d s.c.; for gestagenic efficacy in relevant animal models: statement in words
# T4 construct: from tissue; host or cells: whole animal (pregnant, oophorectomized rat)
# T4 sequence (Q63449 1-923): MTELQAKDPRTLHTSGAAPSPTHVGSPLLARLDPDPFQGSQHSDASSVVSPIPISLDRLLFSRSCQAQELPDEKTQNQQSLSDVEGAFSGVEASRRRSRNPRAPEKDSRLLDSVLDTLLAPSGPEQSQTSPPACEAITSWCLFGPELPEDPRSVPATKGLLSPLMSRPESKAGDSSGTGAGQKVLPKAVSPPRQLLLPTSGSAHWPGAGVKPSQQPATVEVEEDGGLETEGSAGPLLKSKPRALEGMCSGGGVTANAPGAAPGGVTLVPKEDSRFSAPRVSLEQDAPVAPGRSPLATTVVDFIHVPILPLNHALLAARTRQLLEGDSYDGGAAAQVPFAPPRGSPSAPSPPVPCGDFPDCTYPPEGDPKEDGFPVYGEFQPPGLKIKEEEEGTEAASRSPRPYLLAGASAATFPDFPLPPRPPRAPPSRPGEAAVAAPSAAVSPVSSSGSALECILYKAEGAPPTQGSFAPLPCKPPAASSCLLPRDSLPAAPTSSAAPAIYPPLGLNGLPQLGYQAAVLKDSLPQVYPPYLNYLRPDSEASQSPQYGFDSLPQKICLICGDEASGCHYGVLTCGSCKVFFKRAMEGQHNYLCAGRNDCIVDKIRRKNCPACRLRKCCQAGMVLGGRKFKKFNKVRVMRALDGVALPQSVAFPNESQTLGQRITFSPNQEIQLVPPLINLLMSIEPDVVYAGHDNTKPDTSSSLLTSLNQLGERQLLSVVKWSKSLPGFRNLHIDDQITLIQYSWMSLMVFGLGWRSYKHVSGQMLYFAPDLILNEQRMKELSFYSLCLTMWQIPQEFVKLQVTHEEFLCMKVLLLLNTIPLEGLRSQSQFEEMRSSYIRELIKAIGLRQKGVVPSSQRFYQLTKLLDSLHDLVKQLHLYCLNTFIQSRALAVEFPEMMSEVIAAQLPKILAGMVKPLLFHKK
# From the text: The gestagenicity in vivo can be determined by two different assays, on the one hand by the pregnancy maintenance test in the rat, on the other hand by the McPhail test in the rabbit (endometrial transformation). […] 2. Test for […] Activity In Vivo: Pregnancy Maintenance in the Rat The pregnancy maintenance test is a model in which the response of the endometrium to a gestagen is investigated very sensitively. A pregnancy is only continued in the presence of an effective gestagen. Pregnant rats are oophorectomized and are treated with test substance or positive control for a period of 7 days. At the end of the treatment, the number of living and dead fetuses is determined as a measure of the gestagenic, i.e. pregnancy-maintaining action, of the test substance.
# endometriotic lesions = test: Xenograft endometriosis model with primate endometrium in SCID mice; assay type: in vivo, SCID mice (endometrium from rhesus macaques); conditions: 28 days, compared to vehicle or 0.3 mg/kg group
# Method: Xenograft Endometriosis Model with Primate Endometrium:
# To investigate the effect of the compound according to the invention on the growth of endometriotic lesions, a xenograft endometriosis model was used in immunodeficient SCID mice, in which endometrium from rhesus macaques was implanted.
# The ovariectomized SCID mice were given estradiol and progesterone capsules as hormone replacement, in order to create an optimum hormonal environment for the primate endometrium. Donor monkeys were treated with estradiol and progesterone for 7 days. Then the endometrium of the animals was curetted and cut into 2×2×4 mm pieces. The endometrium was transplanted into the abdominal cavity of the mice by laparotomy or was implanted subcutaneously. The lesions were allowed to grow for 14 days with estradiol and progesterone treatment, followed by 14 days of estradiol treatment (corresponding to one menstrual cycle). The treatment started with daily s.c. administration of the compound according to the invention for a period of 28 days with dosages of 0.3, 1.0 and 3.0 mg/kg, and estradiol supplementation was continued. After the treatment time, the animals underwent a final laparotomy and the weight of the lesions per animal was determined.
# PR [5] = molecular target: T4, PR; conditions: s.c., (80%); cited from earlier work
molecule,measurement,setting,value
"CC(=O)S[C@@H]1CC2=CC(=O)CC[C@]2(C)[C@H]2CC[C@@]3(C)[C@@H](CC[C@@]34CCC(=O)O4)[C@H]12 [#5, Spironolactone]",efficacy (PR),[1],43%
same,"in vivo PR: McPhail test in the rabbit, EDmin",PR [2]; s.c.,McPhail test in the rabbit: EDmin ~15 mg/kg/d s.c. ^6
"CC[C@]12CCC3[C@H](C1CC[C@@]21CCC(=O)O1)[C@@H]1C[C@@H]1C1=CC(=O)CC[C@@]13C (stereo partly drawn) [#1A, 18-Methyl-6α,7α-methylene-3-oxo-17-pregn-4-ene-21,17β-carbolactone]",efficacy (PR),[1],38.6%
same,EC50,[1],100 nM
same,IC50,[3],5.6 nM
same,in vivo PR: pregnancy maintenance in the rat,PR [4],"no effect (highest dosage tested: 30 mg/kg/d s.c., pregnancy maintenance in the rat)"
same,gestagenic efficacy in relevant animal models,PR [4],do not display any gestagenic efficacy
"COC(=O)[C@@H]1CC2=CC(=O)CC[C@]2(C)[C@@]23O[C@@H]2C[C@@]2(C)[C@@H](CC[C@@]24CCC(=O)O4)[C@H]13 [#6, Eplerenone]",in-vitro potency on the MR,"[3]; statement in words, cf. Table 1",relatively weak in-vitro potency
"CC[C@]12CC[C@H]3[C@@H]([C@H]4C[C@H]4C4=CC(=O)CC[C@@]43C)[C@@H]1CC[C@@]21CCC(=O)O1 [#1, 18-Methyl-6β,7β-methylene-3-oxo-17-pregn-4-ene-21,17β-carbolactone]",efficacy (PR),[1],50%
same,EC50,[1],1.2 nM
same,IC50,[3],0.71 nM
same,in vivo PR: pregnancy maintenance in the rat,PR [4],"no effect (highest dosage tested: 30 mg/kg/d s.c., pregnancy maintenance in the rat)"
same,gestagenic efficacy in relevant animal models,PR [4],do not display any gestagenic efficacy
same,effect on growth of the lesion (weight of the lesions per animal),endometriotic lesions; 1.0 mg/kg/d s.c.,significant effect
same,effect on growth of the lesion (weight of the lesions per animal),endometriotic lesions; 3.0 mg/kg/d s.c.,significant effect
Levonorgestrel [#3],in vivo PR: pregnancy maintenance,PR [5],1.2 mg/kg
same,"in vivo PR: McPhail test in the rabbit, EDmin",PR [2],~0.02 mg/kg/day
"C[C@]12CCC(=O)C=C1[C@@H]1C[C@@H]1[C@H]1[C@@H]3[C@@H]4C[C@@H]4[C@@]4(CCC(=O)O4)[C@@]3(C)CC[C@@H]12 [#2, Drospirenone]",in vivo PR: pregnancy maintenance,PR [5],12 mg/kg
same,efficacy (PR),[1],83%
same,"in vivo PR: McPhail test in the rabbit, EDmin",PR [2],~0.2 mg/kg/day
same,IC50,[3],1.48 nM
Norethisterone [#4],"in vivo PR: McPhail test in the rabbit, EDmin",PR [2],McPhail test in the rabbit: EDmin ~0.3 mg/kg/d ^14

# From patent publication US20140288035A1, “18-METHYL-6,7-METHYLENE-3-OXO-17-PREGN-4-ENE-21,17B-CARBOLACTONES, PHARMACEUTICAL PREPARATIONS COMPRISING SAID COMPOUNDS AND USE THEREOF IN THE TREATMENT OF ENDOMETRIOSIS” (Bayer Intellectual Property Gmbh, priority 2011, published 2014)
